According to patent US9540381B2, “Anti-angiogenesis compound, intermediate and use thereof” (Guangzhou KangRui Biological Pharmaceutical Technology Co., …, priority 2013, dated 2017):

Experiments:
[1] = system: vessel development of the FLK1-GFP transgenic danio rerio; test: Inhibition test on vascular development of Danio rerio; format: in vivo; settings: for inhibition at 0.1 µM / inhibition at 1 µM / inhibition at 5 µM / inhibition at 10 µM / inhibition at 20 µM / inhibition at 40 µM / inhibition at 100 µM: Danio rerio, after 24 hours, n = 5, read-out: inhibition rate on the development of vertebral vessel; for inhibition at 0.1 µM: 100 nM; for inhibition effect on the vessel development of the danio rerio (in words): Table 1 and FIG. 7
Experimental: Female fish can spawn 200-300 […], and the fertilization and embryonic development processes are conducted in vitro. They can grow up within 24 hours, and the embryo is transparent, which is suitable for observing the change of intracorporal organs and tissues. These characteristics make the danio rerio become to be one of the five fish laboratory animals accepted by the international organization for standardization. Currently, the danio rerio is widely used in human disease studies, especially used in cardiovascular system studies. The danio rerio can be used for screening the influence of small molecular compounds on angiogenesis. Experimental Method: This experiment uses FLK1-GFP transgenic danio rerio as an animal model which is generally used for screening the influence of compounds on angiogenesis. Vessel can be in vivo observed under fluorescence microscope (Suk-Won Jin, 2005, Development). The selected embryo of the postnatal FLK1-GFP transgenic danio rerio was placed into a culture dish and incubated for 3-5 days in an incubator at 28° C. […] Examine the developmental condition of the vertebral vessel after 24 hours and take photo by use of the fluorescence microscope.

VEGFR2 = target: T1, VEGFR2 (Homo sapiens, UniProt P35968); test: In vitro inhibition test on VEGFR2 in HUVECs (anti-phosphorylated VEGFR2 blot); format: cell-based; settings: 10 nM, 100 nM and 1 μM, 50 ng/ml VEGF
T1 construct: endogenous in cells; host or cells: primary HUVECs P3-P5
T1 sequence (P35968 20-1356): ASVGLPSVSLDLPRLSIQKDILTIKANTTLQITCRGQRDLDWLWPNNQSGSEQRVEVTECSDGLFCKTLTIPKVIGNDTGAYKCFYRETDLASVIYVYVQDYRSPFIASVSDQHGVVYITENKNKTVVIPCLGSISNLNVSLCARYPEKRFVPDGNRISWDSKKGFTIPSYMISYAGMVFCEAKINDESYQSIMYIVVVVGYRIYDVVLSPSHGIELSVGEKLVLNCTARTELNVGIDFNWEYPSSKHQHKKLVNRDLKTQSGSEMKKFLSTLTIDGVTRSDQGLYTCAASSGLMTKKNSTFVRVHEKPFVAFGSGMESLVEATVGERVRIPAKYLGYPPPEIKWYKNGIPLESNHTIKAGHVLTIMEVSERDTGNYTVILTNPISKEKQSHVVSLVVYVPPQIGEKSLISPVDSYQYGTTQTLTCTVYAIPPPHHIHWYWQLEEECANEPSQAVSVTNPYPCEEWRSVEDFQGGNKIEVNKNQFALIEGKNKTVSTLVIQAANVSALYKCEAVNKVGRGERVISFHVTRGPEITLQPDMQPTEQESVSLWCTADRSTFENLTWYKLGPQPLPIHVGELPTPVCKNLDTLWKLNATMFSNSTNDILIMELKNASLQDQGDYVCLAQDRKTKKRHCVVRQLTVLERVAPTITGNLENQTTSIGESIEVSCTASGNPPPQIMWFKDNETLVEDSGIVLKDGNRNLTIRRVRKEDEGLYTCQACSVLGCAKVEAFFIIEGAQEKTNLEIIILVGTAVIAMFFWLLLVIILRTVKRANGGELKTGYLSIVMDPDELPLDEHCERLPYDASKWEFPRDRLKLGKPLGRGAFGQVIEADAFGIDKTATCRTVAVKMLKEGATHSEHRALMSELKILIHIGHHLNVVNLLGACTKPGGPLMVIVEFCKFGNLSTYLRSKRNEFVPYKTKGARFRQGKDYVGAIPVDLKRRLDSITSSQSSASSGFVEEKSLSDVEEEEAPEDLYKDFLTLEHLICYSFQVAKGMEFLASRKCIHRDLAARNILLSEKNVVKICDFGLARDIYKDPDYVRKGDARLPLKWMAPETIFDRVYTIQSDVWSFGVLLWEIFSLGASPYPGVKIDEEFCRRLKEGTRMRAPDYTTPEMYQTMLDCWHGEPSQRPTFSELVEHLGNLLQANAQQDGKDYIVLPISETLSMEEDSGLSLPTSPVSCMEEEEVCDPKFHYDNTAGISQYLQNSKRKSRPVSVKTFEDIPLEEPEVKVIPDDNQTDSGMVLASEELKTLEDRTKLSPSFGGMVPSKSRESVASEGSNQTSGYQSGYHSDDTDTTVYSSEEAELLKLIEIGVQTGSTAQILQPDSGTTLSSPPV
Experimental: The experimental method of detecting the inhibition of the compounds of the present invention on VEGFR2 kinase is as follows:
1) The primary cultured human umbilical vein endothelial cells (HUVECs) P3-P5 were transferred to 6 well plate, 2×10^5 cells per well;
2) compounds 2-1, 2-2 and 2-4 of the present invention (the concentrations are 10 nM, 100 nM and 1 μM for each compound) were added when the cells grow to 70-80%, VEGF was a control, incubation for 30 min;
3) 50 ng/ml VEGF (cell Signaling company, US) was added, stimulating for 10 min;
4) nondenature lysis buffer was added to terminate the reaction, and cell lysis buffer was collected to carry out protein quantification;
5) SDS-PAGE electrophoresis, transfer to nitrocellulose membrane, the membrane was cut off and sealed in phosphate tween buffer, TTBS buffer (Tris-buffered saline 0.01% Tween 20, cell Signaling company, US, PH8.0) formulated from 5% skimmed milk for 2 hours; 6) wash the membrane, seal at 4° C. overnight by use of an anti-phosphorylated VEGFR2 antibody (1:1000 dilution, cell Signaling company, US); 7) on the second day after washing membrane, horse radish peroxidase marked goat anti-rabbit second antibody (cell Signaling company, US) was incubated with the membrane at room temperature for 1 hour; 8) develop with chemiluminescence kit (Millipore company) after washing membrane, and take photos.

SMILES	inhibition at 0.1 µM [1] [%]	inhibition at 1 µM [1] [%]	inhibition at 5 µM [1] [%]	inhibition at 10 µM [1] [%]	inhibition at 20 µM [1] [%]	inhibition at 40 µM [1] [%]	inhibition at 100 µM [1] [%]	inhibition effect on the vessel development of the danio rerio (in words) [1]	inhibition of VEGFR2 (in words, FIG. 8) (VEGFR2)
O=C(Nc1cccc(C(F)(F)F)c1)c1cccc2nc(Oc3ncnc4c3CCNC4)ccc12 [Compound 2-3]	0	0	0	0	0	5	20	have inhibition effect on the vessel development of the danio rerio	–
CNCc1cc(Oc2ccc3c(C(=O)Nc4cccc(C(F)(F)F)c4)cccc3n2)ncn1 [Compound 2-4]	0	0	0	0	5	25	70	have inhibition effect on the vessel development of the danio rerio	can inhibit VEGFR2
O=C(Nc1cccc(C(F)(F)F)c1)c1cccc2nc(Oc3ncnc4c3CNC4)ccc12 [Compound 2-5]	0	0	10	40	80	100	100	have inhibition effect on the vessel development of the danio rerio	–
Cc1ccc(Nc2nccc(N(C)c3ccc4c(C)n(C)nc4c3)n2)cc1S(N)(=O)=O [Compound 130B, Pazopanib, reference compound]	0	0	85	90	95	95	100	–	–
